Assay results reported in patent US20230233585A1, “USE OF […] OR OF ITS SALT FOR THE TREATMENT OF OSTEOARTHROSIS” (ABIOGEN PHARMA S.P.A., priority 2014, published 2023).

How the values were obtained:
[1] = tested on: patients with osteoarthritis; settings: dosages 5, 15, 35 and 50 mg; cited from earlier work
[2] = tested on: patients with acute painful knee osteoarthritis (OA); assay: Pain in the affected knee by VAS (0-100), randomized double-blind placebo-controlled study; assay type: in vivo; settings: mean ± SD
Description: (§1) The aim of this randomized, double-blind, placebo-controlled study was to assess the efficacy of intravenous neridronate in controlling pain in patients with acute painful knee osteoarthritis (OA).
(§2) From March 2013 to January 2014, 96 patients older than 50 years and with a recent onset of knee pain were screened. These patients came from the orthopedic and rheumatologic outpatients services and the emergency department of a tertiary care center devoted to bone and joint diseases. Sixty-eight patients were considered eligible to be recruited when they met the following inclusion criteria: 1) knee OA fulfilling the American College of Rheumatology diagnostic criteria; 2) a radiographic Kellgren-Lawrence grading score ≥2 in the tibiofemoral joint; 3) a continuous knee pain by at least 2 weeks with an onset no longer than three months; 4) a pain intensity greater than 30 mm on a Huskisson's visual analog scale ranging from 0 (no pain) to 100 mm (maximal pain); 5) a knee MR scan showing large (>1 cm according to international criteria) BMLs. […] At the time of recruitment, 58 patients out of 68 (85.3%) were taking or had taken drugs to control pain in the previous three months. The patients were asked not to take any analgesics or nonsteroidal anti-inflammatory drugs (NSAIDs) throughout the study period. All patients gave written consent. The study was approved by the Ethics Committee of the hospital where the study was carried out.
(§3) After enrolment, patients were randomized to receive placebo or sodium neridronate (Abiogen, Pisa, Italy) 100 mg/8 ml in vials with an identical appearance in a 1:1 ratio. Both sodium neridronate and placebo were diluted in 500 ml of saline isotonic solution and infused in the morning for over 2 hours. The treatment was administered every third day four times starting from day 1 (first infusion) and ending on day 10 (fourth infusion). Throughout the infusion course, serum calcium was assayed before each infusion. The values were adjusted for albumin value of 4.2 g/dL. After 60 days (57-66) from the first infusion, the last clinical assessment was performed. Two months after the end of the study, patients were interviewed by telephone about a possible relapse of pain and the possible resumption of analgesic drugs and/or NSAIDs.
Primary outcome of the study was the assessment and comparison of changes in pain intensity between the sodium neridronate group and the placebo group along the study. Pain in the affected knee was measured by VAS (0-100) at day 1 (T0), at the day of the last infusion (day 10; T1) and 50 days later (T2). As secondary endpoints, the following clinical assessments were performed: the Western Ontario and MacMaster Universities Osteoarthritis Index (WOMAC) pain questionnaire; the McGill Pain Questionnaire and the 36-Item Short Form Health Survey (SF-36) questionnaire to assess the patient's functional status. All these instruments were administered at T0 and T2. As additional endpoint, changes in WORMS score before the treatment and at T2 have been measured.

[3] = tested on: patients with acute painful knee osteoarthritis (OA); assay: WOMAC pain questionnaire; assay type: in vivo; settings: mean ± SD
Description: as §1
(§4) From March 2013 to January 2014, 96 patients older than 50 years and with a recent onset of knee pain were screened. These patients came from the orthopedic and rheumatologic outpatients services and the emergency department of a tertiary care center devoted to bone and joint diseases. […]
(§5) Primary outcome of the study was the assessment and comparison of changes in pain intensity between the sodium neridronate group and the placebo group along the study. Pain in the affected knee was measured by VAS (0-100) at day 1 (T0), at the day of the last infusion (day 10; T1) and 50 days later (T2). […] As additional endpoint, changes in WORMS score before the treatment and at T2 have been measured.

[4] = tested on: patients with acute painful knee osteoarthritis (OA); assay: SF-36 questionnaire (functional status); assay type: in vivo; settings: mean ± SD
Description: as §1, §2, §3, §5

[5] = tested on: patients with acute painful knee osteoarthritis (OA); assay: McGill Pain Questionnaire; assay type: in vivo; settings: mean ± SD
Description: as §1, §4, §5

[6] = tested on: subchondral BMLs in patients with painful knee OA; assay: Knee MRI, WORMS score for bone marrow edema; assay type: in vivo; settings: mean ± SD
Experimental: as §3
High resolution, three-dimensional MRI of the target knee was obtained for each patient before the start of the treatment (1-7 days) and at the end of the study (day 58-69). All MR images were evaluated by a skilled musculoskeletal radiologist who was blinded to the patient's treatment. All MR examinations were performed with a 1.5 T scanner (Magnetom Espree, Siemens) using a dedicated knee coil. Imaging was performed on sagittal, coronal and transverse planes, with a field of view (FOV) of 18 cm and a matrix of acquisition of 256×256. The MR protocol included: spin echo (SE) T1-weighted sequences (repetition time TR 580 ms, echo time TE 12 ms, number of signal averages 2, thickness 3.0 mm, intersection gap 0.5 mm) on sagittal, coronal and transverse planes; SE T2-weighted sequences (TR 4.000 ms, TE 30/100 ms, one signal acquired, thickness 3.0 mm, intersection gap 0.5 mm) on sagittal and transverse planes; PD-weighted sequence with fat/suppression (TR 2800 ms, TE 40 ms, one signal acquired, thickness 3.0 mm, intersection gap 0.5 mm) on coronal plane. Subchondral BMLs were identified as areas of increase signal intensity on fat-suppressed T2-weighted images. Scores were assigned using the Whole-Organ MRI score for knee OA (WORMS) for bone marrow edema. […] For each subregion, the extent of the lesion was assessed following the WORMS scale: 0=absence of edema; 1=less than 25%; 2=25-50%; 3=>50%.
as §5

[7] = tested on: patients with acute painful knee osteoarthritis (OA); assay: Telephone interview on resumption of analgesic drugs and/or NSAIDs; assay type: in vivo; settings: two months after the last clinical evaluation; 4 patients out of 31
Experimental: as §3

[8] = tested on: patients with acute painful knee osteoarthritis (OA); assay: Adverse events during the infusion course; assay type: in vivo; settings: one patient, after the first infusion
Experimental: as §3
Fifty-six patients completed the study. […] Eight patients in the placebo group were excluded for the resumption of analgesic or NSAIDs treatment during the study (7 patients) and one patient refused to return to be evaluated 50 days after the treatment. […]

[9] = 50 days after the end of treatment (T2), N = 31

| Structure (SMILES) | efficacy of treatment in pain symptoms versus placebo [1] | VAS score ([2]; 50 days after the end of treatment (T2), 100 mg i.v. x4, N = 31) | VAS score ([2]; 50 days after the end of treatment (T2), 100 mg i.v. x4, N = 31, listed as Neridronate) | VAS score ([2]; baseline (day 1, T0), before treatment, N = 34) | VAS score ([2]; baseline (day 1, T0), before treatment, N = 34, listed as Neridronate) | VAS score ([2]; day of the last infusion (day 10, T1), 100 mg i.v. on days 1, 4, 7, 10) | WOMAC [3, 9] | WOMAC ([3]; baseline (T0), N = 34) | SF-36 mental component [4, 9] | SF-36 physical component [4, 9] | SF-36 mental component ([4]; baseline (T0), N = 34) | SF-36 physical component ([4]; baseline (T0), N = 34) | McGill [5, 9] | McGill ([5]; baseline (T0), N = 34) | WORMS score ([6]; T2, MRI at the end of the study, N = 31) | WORMS score ([6]; T2, MRI at the end of the study, N = 31, listed as Neridronate) | WORMS score ([6]; baseline, MRI before the start of treatment, N = 34) | WORMS score ([6]; baseline, MRI before the start of treatment, N = 34, listed as Neridronate) | patients who had resumed symptomatic therapy with analgesic drugs or NSAIDs [7] | adverse event leading to withdrawal of consent [8] |
| --- | --- | --- | --- | --- | --- | --- | --- | --- | --- | --- | --- | --- | --- | --- | --- | --- | --- | --- | --- | --- |
| O=P(O)(O)C(O)(Cc1cccnc1)P(=O)(O)O [risedronate] | it was not possible to find any difference | – | – | – | – | – | – | – | – | – | – | – | – | – | – | – | – | – | – | – |
| NCCCCCC(O)(P(=O)(O)O)P(=O)(O)O [sodium neridronate] | – | 9.4±10.8 | 9.4 | 59.0±14.7 | 59.0 ± 14.7 | 30.4±15.6 | 58 | 232 ± 79 | 62.5 | 51.1 | 56.1 ± 12.4 | 36.6 ± 10.2 | 3.7 | 14.3 ± 7.6 | 3.7±4.2 | 3.7 | 6.3±3.0 | 6.3 ± 3.0 | 12.9% | acute phase reaction |
